Measurements as given in US8889666B2, “Quinolyl pyrrolo pyrimidyl condensed-ring compound and salt thereof” (Taiho Pharmaceutical Co., Ltd., priority 2012, dated 2014).

Legend:
[1] = target: T1, EGFR (d746-750/T790M) (Homo sapiens, UniProt P00533, DEL746-750/T790M); assay: EGFR (d746-750/T790M) kinase inhibitory activity (in vitro); format: biochemical; conditions: recombinant human protein, ATP 1.5 μM
T1 construct: purchased Carna Biosciences, Inc
Description: (§1) The measurement method was as follows. The compounds I-1, I-2, I-3, I-4, I-5, I-6, I-7, I-8, and I-9 were each dissolved in dimethylsulfoxide (DMSO), and then each serially diluted with DMSO. Next, the EGFR (T790M/L858R) protein, substrate peptide (final concentration: 250 nM), magnesium chloride (final concentration: 10 mM), manganese chloride (final concentration: 10 mM), ATP (final concentration: 1 μM), and the diluted DMSO solution of each compound (final concentration of DMSO: 2.5%) were added to a kinase reaction buffer (Carna Biosciences, Inc.), and the mixture was incubated at 25° C. for 120 minutes for kinase reaction. EDTA was added thereto to a final concentration of 24 mM to thereby terminate the reaction. Then, a detection solution containing europium (Eu)-labeled anti-phosphorylated tyrosine antibody PT66 (PerkinElmer) and SureLight APC-SA (PerkinElmer) was added, and the resulting mixture was allowed to stand at room temperature for 2 hours or more. Finally, the intensity of fluorescence under the excitation light with a wavelength of 337 nm was measured by a PHERAstar FS (BMG LABTECH) at two wavelengths of 620 nm and 665 nm. The level of phosphorylation of each test sample was calculated from the fluorescence intensity ratio of the two wavelengths in DMSO control and in the test sample, and the compound concentration at which phosphorylation was inhibited by 50% was determined as the IC50 value (nM) of each compound.
2) Measurement of EGFR (d746-750/T790M) Kinase Inhibitory Activity
The inhibitory activities of the compounds I-1, I-2, I-3, I-4, I-5, I-6, I-7, I-8, and I-9 for EGFR (d746-750/T790M) kinase were measured.
(§2) The materials were as follows. The EGFR (d746-750/T790M) was a purified recombinant human EGFR (d746-750/T790M) protein purchased from Carna Biosciences, Inc. The final concentration of ATP was 1.5 μM. As for other conditions, the same materials and methods as those used in the measurement of EGFR (T790M/L858R) kinase inhibitory activity were used to determine the IC50 value (nM) of each compound.

[2] = tested on: human epidermoid carcinoma cell line A431 expressing EGFR (WT); assay: Growth inhibitory activity, EGFR (WT)-expressing cell line; format: cell-based; conditions: for GI50: Homo sapiens, A-431, 72 h, three days culture, CellTiter-Glo; for growth-inhibitory activities for EGFR (WT)-expressing cells compared with cells expressing mutant EGFRs, in words: summary of Table 2
Description: (§3) 1) A lung adenocarcinoma cell line NCI-H1975 expressing EGFR (T790M/L858R), 2) a lung adenocarcinoma cell line HCC827 expressing EGFR (d746-750), and 3) a human epidermoid carcinoma cell line A431 expressing EGFR (WT) were each suspended in the medium recommended by ATCC. The cell suspension was seeded in each well of a 384-well flat microplate or 96-well flat plate, and cultured in an incubator containing 5% carbon dioxide gas at 37° C. for one day. The compound of the present invention and the reference compound were dissolved in DMSO, and then the DMSO solution of each test compound was diluted with DMSO to a concentration 200 times higher than the final concentration. The diluted DMSO solution of the test compound was diluted with the medium used to suspend each cell line, and the diluted solution was added to each well of the cell culture plate so that the final concentration of DMSO was 0.5%. Then, the cells were cultured in an incubator containing 5% carbon dioxide gas at 37° C. for three days. The number of cells was measured at the time of initiation and termination of the culture by using a CellTiter-Glo Assay (produced by Promega) according to a protocol recommended by Promega. The cell growth inhibition rate was calculated by the following formula, and the concentration of the test compound at which the cell growth was inhibited by 50% (GI50 (nM)) was determined. Growth inhibition rate (%)=(C−T)/(C−C0)×100
(§4) T: Luminescence intensity of well to which test compound was added
(§5) C: Luminescence intensity of well to which test compound was not added
(§6) C0: Luminescence intensity of well measured before addition of test compound

[3] = target: T2, EGFR (T790M/L858R) (Homo sapiens, UniProt P00533, L858R/T790M); assay: EGFR (T790M/L858R) kinase inhibitory activity (in vitro); format: biochemical; conditions: for IC50: recombinant human protein, ATP 1 μM, 120 minutes; for inhibitory activities for EGFR (L858R), EGFR (d746-750), EGFR (T790M/L858R) and EGFR (d746-750/T790M), in words: summary of Table 1, all four mutant kinases
T2 construct: purchased Carna Biosciences, Inc
Description: 1) Measurement of EGFR (T790M/L858R) Kinase Inhibitory Activity
The inhibitory activities of the compounds I-1, I-2, I-3, I-4, I-5, I-6, I-7, I-8, and I-9 for EGFR (T790M/L858R) kinase were measured.
The materials were as follows. The substrate peptide was a biotinylated peptide (biotin-EEPLYWSFPAKKK) synthesized by reference to the amino acid sequence of FL-Peptide 22 (a reagent for LabChip® Series; Caliper Life Sciences, Inc.). The EGFR (T790M/L858R) was a purified recombinant human EGFR (T790M/L858R) protein purchased from Carna Biosciences, Inc.
as §1

[4] = target: T3, EGFR (d746-750) (Homo sapiens, UniProt P00533, DEL746-750); assay: EGFR (d746-750) kinase inhibitory activity (in vitro); format: biochemical; conditions: recombinant human protein, ATP 5 μM, 90 minutes
T3 construct: purchased Carna Biosciences, Inc
Description: as §1
4) Measurement of EGFR (d746-750) Kinase Inhibitory Activity
The inhibitory activities of the compounds I-1, I-2, I-3, I-4, I-5, I-6, I-7, I-8, and I-9 for EGFR (d746-750) kinase activity were measured.
as §2, with “(d746-750)” for “(d746-750/T790M)”, “5” for “1.5”, “μM. The incubation time for the kinase reaction was 90 minutes.” for “μM.”

[5] = tested on: lung adenocarcinoma cell line NCI-H1975 expressing EGFR (T790M/L858R); assay: Growth inhibitory activity, EGFR (T790M/L858R)-expressing cell line; format: cell-based, human; conditions: for GI50: Homo sapiens, NCI-H1975, 72 h, three days culture, CellTiter-Glo; for growth-inhibitory activities for EGFR (d746-750)-expressing and EGFR (T790M/L858R)-expressing cells, in words: summary of Table 2, NCI-H1975 and HCC827
Description: as §3, §4, §5, §6

[6] = target: T4, EGFR (WT) (Homo sapiens, UniProt P00533); assay: EGFR (WT) kinase inhibitory activity (in vitro); format: biochemical; conditions: for IC50: cytoplasmic domain of human EGFR (WT), ATP 4.7 μM, substrate peptide 500 nM; for inhibitory activities for EGFR (WT) compared with the mutant EGFR proteins, in words: summary of Table 1
T4 construct: the cytoplasmic domain of human EGFR (WT); FLAG (N); made in house; host or cells: baculovirus expression system, insect Sf9 cells
Description: as §1
The inhibitory activities of the compounds I-1, I-2, I-3, I-4, I-5, I-6, I-7, I-8, and I-9 on EGFR (WT) kinase were measured.
The materials were as follows. As the EGFR (WT), the cytoplasmic domain of human EGFR (WT) in which a FLAG tag was fused to the N-terminus was expressed in a baculovirus expression system using insect Sf9 cells, and purified with anti-FLAG antibody agarose (Sigma-Aldrich). The final concentration of the substrate peptide was 500 nM, and the final concentration of ATP was 4.7 μM. As for other conditions, the same materials and methods as those used in the measurement of EGFR (T790M/L858R) kinase inhibitory activity were used to determine the IC50 value (nM) of each compound.

[7] = target: T5, EGFR (L858R) (Homo sapiens, UniProt P00533, L858R); assay: EGFR (L858R) kinase inhibitory activity (in vitro); format: biochemical; conditions: recombinant human protein, ATP 4 μM
T5 construct: purchased Carna Biosciences, Inc
Description: as §1
3) Measurement of EGFR (L858R) Kinase Inhibitory Activity
The inhibitory activities of the compounds I-1, I-2, I-3, I-4, I-5, I-6, I-7, I-8, and I-9 for EGFR (L858R) kinase were measured.
as §2, with “(L858R)” for “(d746-750/T790M)”, “4” for “1.5”

[8] = tested on: lung adenocarcinoma cell line HCC827 expressing EGFR (d746-750); assay: Growth inhibitory activity, EGFR (d746-750)-expressing cell line; format: cell-based; conditions: Homo sapiens, HCC827, 72 h; three days culture, CellTiter-Glo
Description: as §3, with “Then, the cells were cultured in an incubator containing 5% carbon dioxide gas at 37° C. for three days.” left out, “The cell growth inhibition rate was calculated by the following formula, and the concentration of the test compound at which the cell growth was inhibited by 50% (GI50 (nM)) was determined. Growth inhibition rate (%)=(C−T)/(C−C0)×100” left out
as §4, §5, §6

T4 sequence (P00533 669-1210 limits assumed): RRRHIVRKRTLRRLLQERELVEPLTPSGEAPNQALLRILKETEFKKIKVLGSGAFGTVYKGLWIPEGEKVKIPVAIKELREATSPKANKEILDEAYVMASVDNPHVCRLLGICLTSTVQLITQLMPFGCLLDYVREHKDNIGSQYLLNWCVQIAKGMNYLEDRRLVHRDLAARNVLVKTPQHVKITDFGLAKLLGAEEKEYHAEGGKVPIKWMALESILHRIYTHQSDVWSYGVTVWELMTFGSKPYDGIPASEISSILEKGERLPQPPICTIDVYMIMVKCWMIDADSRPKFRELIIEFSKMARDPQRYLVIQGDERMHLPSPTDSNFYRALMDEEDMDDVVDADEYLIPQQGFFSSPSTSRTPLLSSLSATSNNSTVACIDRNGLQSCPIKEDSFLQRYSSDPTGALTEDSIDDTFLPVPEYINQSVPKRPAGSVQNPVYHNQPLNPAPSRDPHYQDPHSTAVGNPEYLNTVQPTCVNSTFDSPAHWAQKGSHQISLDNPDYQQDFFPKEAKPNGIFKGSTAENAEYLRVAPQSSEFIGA
T2 sequence (P00533 25-1210 T790M/L858R): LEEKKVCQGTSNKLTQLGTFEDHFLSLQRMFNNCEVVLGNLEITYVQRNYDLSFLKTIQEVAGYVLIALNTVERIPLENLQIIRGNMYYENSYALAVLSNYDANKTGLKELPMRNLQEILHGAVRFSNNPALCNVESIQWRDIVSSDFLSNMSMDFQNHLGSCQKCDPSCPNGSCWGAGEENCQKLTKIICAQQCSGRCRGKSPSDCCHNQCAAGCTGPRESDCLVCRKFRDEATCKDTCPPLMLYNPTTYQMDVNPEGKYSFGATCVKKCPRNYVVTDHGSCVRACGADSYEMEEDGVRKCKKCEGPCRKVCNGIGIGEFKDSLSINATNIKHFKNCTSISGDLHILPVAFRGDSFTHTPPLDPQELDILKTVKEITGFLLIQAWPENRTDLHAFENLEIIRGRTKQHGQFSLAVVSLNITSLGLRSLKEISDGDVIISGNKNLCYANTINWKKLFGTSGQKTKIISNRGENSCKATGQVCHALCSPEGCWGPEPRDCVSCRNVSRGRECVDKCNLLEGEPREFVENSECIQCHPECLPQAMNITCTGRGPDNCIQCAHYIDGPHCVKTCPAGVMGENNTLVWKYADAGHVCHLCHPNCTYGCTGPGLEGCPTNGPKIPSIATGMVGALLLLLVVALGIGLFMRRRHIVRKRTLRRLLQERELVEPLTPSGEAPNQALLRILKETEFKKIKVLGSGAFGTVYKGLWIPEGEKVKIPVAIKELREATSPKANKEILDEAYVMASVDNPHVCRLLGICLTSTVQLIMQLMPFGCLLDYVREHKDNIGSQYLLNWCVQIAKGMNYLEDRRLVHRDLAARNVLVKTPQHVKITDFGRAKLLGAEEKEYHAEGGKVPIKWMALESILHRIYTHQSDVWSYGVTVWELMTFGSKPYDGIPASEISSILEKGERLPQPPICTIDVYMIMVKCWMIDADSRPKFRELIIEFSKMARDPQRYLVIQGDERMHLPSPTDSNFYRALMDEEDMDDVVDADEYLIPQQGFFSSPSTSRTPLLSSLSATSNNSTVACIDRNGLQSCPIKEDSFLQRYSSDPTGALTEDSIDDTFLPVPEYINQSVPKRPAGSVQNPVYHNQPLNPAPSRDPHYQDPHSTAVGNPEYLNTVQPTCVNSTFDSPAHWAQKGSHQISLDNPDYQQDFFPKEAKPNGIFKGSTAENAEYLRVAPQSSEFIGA
T5 sequence (P00533 25-1210 L858R): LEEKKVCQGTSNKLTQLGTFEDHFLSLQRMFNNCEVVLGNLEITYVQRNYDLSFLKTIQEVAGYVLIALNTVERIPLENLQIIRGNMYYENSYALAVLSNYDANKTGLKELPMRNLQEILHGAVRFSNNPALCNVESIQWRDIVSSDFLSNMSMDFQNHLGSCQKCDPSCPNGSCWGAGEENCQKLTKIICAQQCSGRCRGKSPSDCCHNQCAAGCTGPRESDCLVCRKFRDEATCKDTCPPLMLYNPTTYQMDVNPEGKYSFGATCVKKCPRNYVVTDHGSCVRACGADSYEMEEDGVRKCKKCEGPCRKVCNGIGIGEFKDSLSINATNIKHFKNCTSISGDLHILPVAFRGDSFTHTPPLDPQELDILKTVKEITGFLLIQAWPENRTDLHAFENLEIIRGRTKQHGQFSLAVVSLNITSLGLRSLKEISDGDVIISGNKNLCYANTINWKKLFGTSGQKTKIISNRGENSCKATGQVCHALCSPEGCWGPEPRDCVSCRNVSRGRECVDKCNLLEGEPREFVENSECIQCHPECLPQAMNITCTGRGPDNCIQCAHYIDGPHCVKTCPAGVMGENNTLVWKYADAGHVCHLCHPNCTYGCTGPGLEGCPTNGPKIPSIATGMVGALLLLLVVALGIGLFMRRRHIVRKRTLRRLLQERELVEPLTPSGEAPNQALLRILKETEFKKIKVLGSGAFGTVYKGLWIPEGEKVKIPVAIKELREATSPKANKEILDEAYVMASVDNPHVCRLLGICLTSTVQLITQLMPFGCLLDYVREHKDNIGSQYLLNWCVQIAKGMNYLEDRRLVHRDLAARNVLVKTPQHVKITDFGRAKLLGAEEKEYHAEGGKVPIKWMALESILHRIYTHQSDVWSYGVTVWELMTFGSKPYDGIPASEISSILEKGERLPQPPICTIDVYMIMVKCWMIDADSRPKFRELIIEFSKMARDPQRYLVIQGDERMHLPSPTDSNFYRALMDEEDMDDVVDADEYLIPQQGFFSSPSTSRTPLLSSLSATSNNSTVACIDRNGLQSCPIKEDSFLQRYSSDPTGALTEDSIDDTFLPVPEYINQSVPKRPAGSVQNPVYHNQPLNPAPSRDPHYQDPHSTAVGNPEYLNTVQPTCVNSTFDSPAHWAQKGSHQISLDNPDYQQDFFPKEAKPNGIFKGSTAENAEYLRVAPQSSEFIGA
T1 sequence (P00533 with tags, fused parts or gaps DEL746-750/T790M limits assumed): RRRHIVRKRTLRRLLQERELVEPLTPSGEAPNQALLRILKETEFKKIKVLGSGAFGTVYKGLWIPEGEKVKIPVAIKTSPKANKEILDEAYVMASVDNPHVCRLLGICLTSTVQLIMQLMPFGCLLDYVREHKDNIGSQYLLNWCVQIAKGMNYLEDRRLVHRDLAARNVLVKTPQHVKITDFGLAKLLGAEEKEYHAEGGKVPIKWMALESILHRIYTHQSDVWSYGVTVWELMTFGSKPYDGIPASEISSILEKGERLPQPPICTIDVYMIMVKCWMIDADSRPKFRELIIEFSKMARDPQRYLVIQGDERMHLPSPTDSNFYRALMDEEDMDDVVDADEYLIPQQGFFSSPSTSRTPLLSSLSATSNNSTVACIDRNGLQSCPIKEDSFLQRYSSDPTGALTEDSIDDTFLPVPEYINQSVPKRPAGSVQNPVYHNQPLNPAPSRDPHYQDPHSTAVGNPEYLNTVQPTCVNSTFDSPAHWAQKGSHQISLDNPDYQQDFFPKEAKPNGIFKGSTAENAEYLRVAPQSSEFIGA
T3 sequence (P00533 with tags, fused parts or gaps DEL746-750 limits assumed): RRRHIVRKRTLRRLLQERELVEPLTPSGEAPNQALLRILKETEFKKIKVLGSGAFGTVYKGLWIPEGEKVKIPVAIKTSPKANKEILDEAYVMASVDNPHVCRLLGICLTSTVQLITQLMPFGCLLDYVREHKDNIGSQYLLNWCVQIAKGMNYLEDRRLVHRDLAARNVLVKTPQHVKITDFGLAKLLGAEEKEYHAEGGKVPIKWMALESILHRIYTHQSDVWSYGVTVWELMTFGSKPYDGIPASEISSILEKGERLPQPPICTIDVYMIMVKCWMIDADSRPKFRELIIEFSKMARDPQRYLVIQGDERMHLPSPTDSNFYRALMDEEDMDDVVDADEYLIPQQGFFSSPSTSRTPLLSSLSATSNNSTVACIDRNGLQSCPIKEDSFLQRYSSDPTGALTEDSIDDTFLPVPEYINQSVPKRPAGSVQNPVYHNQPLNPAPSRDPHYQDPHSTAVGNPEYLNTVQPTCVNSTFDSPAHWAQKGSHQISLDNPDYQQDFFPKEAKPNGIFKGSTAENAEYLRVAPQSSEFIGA

| IC50 [1] [nM] | GI50 [2] [nM] | IC50 [3] [nM] | inhibitory activities for EGFR (L858R), EGFR (d746-750), EGFR (T790M/L858R) and EGFR (d746-750/T790M), in words [3] | IC50 [4] [nM] | GI50 [5] [nM] | IC50 [6] [nM] | IC50 [7] [nM] | GI50 [8] [nM] | Compound | growth-inhibitory activities for EGFR (WT)-expressing cells compared with cells expressing mutant EGFRs, in words [2] | growth-inhibitory activities for EGFR (d746-750)-expressing and EGFR (T790M/L858R)-expressing cells, in words [5] | inhibitory activities for EGFR (WT) compared with the mutant EGFR proteins, in words [6] |
| --- | --- | --- | --- | --- | --- | --- | --- | --- | --- | --- | --- | --- |
| 0.2 | 590 | 0.3 | potent inhibitory activities | 0.4 | 27 | 4.3 | 0.4 | 5 | C=CC(=O)N[C@H]1CCc2c(-c3cnc4ccccc4c3)c3c(N)ncnc3n2C1 (single isomer, unassigned) [Compound I-2] | weaker growth-inhibitory activities | potent growth-inhibitory activities | lower than those for the above mutant EGFR proteins |
| 0.6 | 1800 | 1.3 | potent inhibitory activities | 1 | 86 | 18 | 1.3 | 10 | C=CC(=O)N(C)C1CCc2c(-c3cnc4ccccc4c3)c3c(N)ncnc3n2C1 (stereo not drawn) [Compound I-3, N-(4-amino-5-(quinolin-3-yl)-6,7,8,9-tetrahydropyrimido[5,4-b]indolizin-8-yl)-N-methylacrylamide] | weaker growth-inhibitory activities | potent growth-inhibitory activities | lower than those for the above mutant EGFR proteins |
